# Measured values reported in PMC8346900 (Proceedings of the National Academy of Sciences of the …, 2021).
# “Also recorded” adds a separate entry of the source.
# Legend:
# [1] = test system: CaMKIIα (mouse brain slices); assay: In vitro autoradiography on Camk2a and Camk2b +/+ and -/- mouse brain slices; type: binding
# [2] = target: CaMKIIβ/γ/δ subtypes; CaMKIIα Δhub (Rattus norvegicus, UniProt P11275); type: binding; conditions: HEK293T cells transiently expressing Δhub
# [3] = test system: CaMKIIβ/γ/δ subtypes; CaMKIIα Δhub; type: binding, rat; conditions: heterologously expressed in HEK293T cells
# [4] = test system: CaMKIIα Thr286 autophosphorylation; assay: Thr286 autophosphorylation by Western blot in cultured cortical neurons; type: cell-based, mouse; conditions: 1 h, HOCPCA 3 mM
# hippocampal neurons = assay: Glu excitotoxicity in cultured hippocampal neurons, live/dead staining; type: cell-based, mouse; conditions: for Cell survival after Glu: Camk2a-/- neurons
# cortical neurons = assay: Glu/Gly excitotoxicity in cultured cortical neurons, LDH release; type: cell-based, mouse
# recombinant CaMKIIα = recombinant CaMKIIα (Homo sapiens, UniProt Q9UQM7); assay: ADP-Glo assay, syntide-II phosphorylation; type: biochemical; conditions: fixed concentration of CaM, wide concentration span
# recombinant CaMKIIα, sequence (Q9UQM7 whole entry): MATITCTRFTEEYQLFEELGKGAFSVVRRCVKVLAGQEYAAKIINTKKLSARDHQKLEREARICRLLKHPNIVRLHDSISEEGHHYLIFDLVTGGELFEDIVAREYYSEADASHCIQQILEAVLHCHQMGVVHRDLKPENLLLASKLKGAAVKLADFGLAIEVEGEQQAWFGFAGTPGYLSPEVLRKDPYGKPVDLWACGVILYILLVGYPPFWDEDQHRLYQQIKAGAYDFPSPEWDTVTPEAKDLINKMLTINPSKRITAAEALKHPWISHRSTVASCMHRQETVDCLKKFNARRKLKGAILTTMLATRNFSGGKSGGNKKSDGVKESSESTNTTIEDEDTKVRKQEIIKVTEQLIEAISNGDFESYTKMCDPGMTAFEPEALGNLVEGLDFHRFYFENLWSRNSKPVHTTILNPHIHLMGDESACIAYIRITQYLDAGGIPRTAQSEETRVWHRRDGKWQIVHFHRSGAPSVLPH
# [5] = test system: mouse hippocampal slices (CA3–CA1); assay: Ex vivo LTP recordings in hippocampal slices; conditions: bath application, 100 μM, 100 Hz induction
# GABAB receptors = conditions: cited from earlier work
# [6] = Body temperature recordings in mice; type: in vivo, mouse; conditions: C57/B6 mice, i.p.; GHB 275 mg/kg, HOCPCA 175 mg/kg
# [7] = target: T1, CaMKIIα wild-type (WT) hub protein (Homo sapiens, UniProt Q9UQM7); assay: Intrinsic tryptophan fluorescence; type: binding; conditions: increasing concentrations
# T1 sequence (Q9UQM7 345-475): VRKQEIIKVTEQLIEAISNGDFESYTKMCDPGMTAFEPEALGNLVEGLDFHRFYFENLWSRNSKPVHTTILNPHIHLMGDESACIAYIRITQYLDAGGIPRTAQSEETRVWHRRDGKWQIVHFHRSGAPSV
# CaMKIIα WT hub = target: T2, CaMKIIα WT hub (Homo sapiens, UniProt Q9UQM7); assay: Thermal shift assay by differential scanning fluorimetry; type: binding; conditions: saturating concentrations, pH 6
# T2 sequence (Q9UQM7 345-475): T1 sequence (Q9UQM7 345-475)
# C57/B6 mice = assay: Photothrombotic stroke model of focal ischemia
# [8] = 175 mg/kg at 3, 6, 12 h poststroke
# CaMKIIβ/γ/δ subtypes; CaMKIIα Δhub (Rattus norvegicus, UniProt P11275), sequence (P11275 1-337, stated change not applied): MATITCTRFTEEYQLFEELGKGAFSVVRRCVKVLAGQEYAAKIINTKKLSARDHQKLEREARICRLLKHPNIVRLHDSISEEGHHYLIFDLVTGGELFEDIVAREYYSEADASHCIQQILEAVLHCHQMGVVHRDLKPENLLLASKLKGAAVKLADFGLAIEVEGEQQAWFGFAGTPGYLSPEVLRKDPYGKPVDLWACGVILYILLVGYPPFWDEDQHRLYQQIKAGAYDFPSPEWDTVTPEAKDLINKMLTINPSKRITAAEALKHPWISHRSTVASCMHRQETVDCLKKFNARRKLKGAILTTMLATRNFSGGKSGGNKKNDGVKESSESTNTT
compound,measurement,setting,value
[3H]C1(O)C=C(C(=O)O)CC1 (stereo not drawn) [[3H]HOCPCA],Binding to brain slices from Camk2a-/- mice,[1],complete lack of binding
same,"Binding to brain tissue of Camk2a+/+, Camk2b+/+ and Camk2b-/- mice",[1],intact binding
same,Binding to CaMKIIα hub deletion mutant (Δhub),[2],complete absence
same,Binding to CaMKIIβ/γ/δ subtypes,[3],no [^3H]HOCPCA binding was observed
"COc1ccc(S(=O)(=O)N(CCO)c2ccccc2CN(C)C/C=C/c2ccc(Cl)cc2)cc1 [KN93, reference compound]",Thr286 autophosphorylation,[4]; basal conditions,significant inhibition
"GRKKRRQRRRKRPPKLGQIGRSKRVVIEDDR [tat-CN21, reference compound]",Live/dead ratio after Glu,hippocampal neurons; Camk2a+/+ neurons,significantly improved
same,Cell survival after Glu,hippocampal neurons,neither tat-CN21 nor HOCPCA improved cell survival
same,Cell death (LDH),cortical neurons; tat-CN21 control (10 μM),significantly reduced cell death
KRPPKLGQIGRSKRVVIEDDR [CN21],Effect on syntide phosphorylation by CaMKIIα,recombinant CaMKIIα,concentration-dependent inhibition
"O=C(O)C1=CC(O)CC1 (stereo not drawn) [HOCPCA, 3-hydroxycyclopent-1-enecarboxylic acid]",Long-term potentiation (LTP),[5],did not inhibit
same,Affinity to native GABAB receptors,GABAB receptors; at 1 mM,no affinity; also recorded: lack affinity
same,Effect on body temperature,[6],no hypothermia
same,mean recovery compared with the Glu-only condition (live/dead ratio),"hippocampal neurons; Camk2a+/+ neurons, trend, not significant",18%
same,Cell survival after Glu,hippocampal neurons,neither tat-CN21 nor HOCPCA improved cell survival
same,Cell live/dead ratio,"hippocampal neurons; FvB hippocampal cultures, 1 mM, 1 h poststimulation, 400 μM Glu",significantly increased
same,Quenching of Trp403 fluorescence,[7],not seen
same,maximum Tm increase (maximum ∆Tm),CaMKIIα WT hub,15 °C
same,Thr286 autophosphorylation,[4]; Ca2+-stimulated conditions,did not affect
same,Thr286 autophosphorylation,[4]; basal conditions,did not affect
same,Cell survival (LDH),cortical neurons; 1 mM applied immediately or 30 min after Glu stimulation,did not have any effect
same,Cell death (LDH),"cortical neurons; applied 1 h after Glu stimulus, concentration dependent (0.1 to 3 mM)",significantly reduced cell death
same,Effect on syntide phosphorylation by CaMKIIα,recombinant CaMKIIα,no effect
same,Forelimb asymmetry in the cylinder test,C57/B6 mice; [8],improvements
same,"Motor coordination, paw placement on grid-walking task",C57/B6 mice; [8],improvements
same,reduction in infarct volume,"C57/B6 mice; 175 mg/kg at 3, 6, and 12 h poststroke, measured 7 d poststroke, young male mice",40 to 50%
same,Transport of neuroanatomical tracer biotinylated dextran amine,"C57/B6 mice; 175 mg/kg i.p., 14 days post-stroke",reversal of the stroke-induced decrease
same,"Compound action potentials (CAPs), corpus callosum","C57/B6 mice; 175 mg/kg single treatment 3 h poststroke, 14 d poststroke",50 to 60 % of control
same,Treatment effect of single dose,"C57/B6 mice; aged female mice, 175 mg/kg",significant treatment effects
same,Treatment effect of single dose,"C57/B6 mice; young males, 90 mg/kg, 3 h poststroke",significant treatment effects
"O=C(O)CCCO [GHB, γ-hydroxybutyrate, reference compound]",Ki,GABAB receptors; GABAB receptors,230 µM
same,Effect on body temperature,[6],strong hypothermia
same,maximum Tm increase (maximum ∆Tm),CaMKIIα WT hub,13 °C
same,Effect on syntide phosphorylation by CaMKIIα,recombinant CaMKIIα,no effect
